Laboratory results taken from BindingDB's records for patent US20250034168 (Xizang Haisco Pharmaceutical, 2025).

Target: Poly [ADP-ribose] polymerase 1 (Homo sapiens, UniProt P09874)
Experiment: PARP-1 Enzyme Activity Assay
Protocol: PARP-1 chemical […] detection kit was purchased from BPS Bioscience. The histone solution in the kit was diluted 5× with 1×PBS, and 25 μL of the diluted histone solution was added to a microwell plate and incubated overnight at 4° C. After the incubation, the plate was washed three times with PBST (0.05% Tween-20). 100 μL of the blocking solution was added to the microwell plate and incubated at 25° C. for 90 minutes. After the incubation, the plate was washed three times with PBST. 2.5 μL of compounds at different concentrations diluted in test buffer and 12.5 μL of substrate mixed solution (1.25 μL 10×PARP test buffer; 1.25 μL 10×PARP test mixed solution; 2.5 μL Activated DNA, 7.5 μL double-distilled water) were added to the microwell plate. […] Streptavidin-HRP was diluted 50× with a blocking solution, and 25 μL of the diluent was added to the microwell plate and incubated at 25° C. for 30 minutes. After the incubation, the plate was washed three times with PBST. ELISA ECL substrate A and substrate B were mixed at a ratio of 1:1 (v/v), 50 μL of the mixture was added to the microwell plate, and the chemiluminescence value was read.

Poly [ADP-ribose] polymerase 1, sequence (P09874 whole entry): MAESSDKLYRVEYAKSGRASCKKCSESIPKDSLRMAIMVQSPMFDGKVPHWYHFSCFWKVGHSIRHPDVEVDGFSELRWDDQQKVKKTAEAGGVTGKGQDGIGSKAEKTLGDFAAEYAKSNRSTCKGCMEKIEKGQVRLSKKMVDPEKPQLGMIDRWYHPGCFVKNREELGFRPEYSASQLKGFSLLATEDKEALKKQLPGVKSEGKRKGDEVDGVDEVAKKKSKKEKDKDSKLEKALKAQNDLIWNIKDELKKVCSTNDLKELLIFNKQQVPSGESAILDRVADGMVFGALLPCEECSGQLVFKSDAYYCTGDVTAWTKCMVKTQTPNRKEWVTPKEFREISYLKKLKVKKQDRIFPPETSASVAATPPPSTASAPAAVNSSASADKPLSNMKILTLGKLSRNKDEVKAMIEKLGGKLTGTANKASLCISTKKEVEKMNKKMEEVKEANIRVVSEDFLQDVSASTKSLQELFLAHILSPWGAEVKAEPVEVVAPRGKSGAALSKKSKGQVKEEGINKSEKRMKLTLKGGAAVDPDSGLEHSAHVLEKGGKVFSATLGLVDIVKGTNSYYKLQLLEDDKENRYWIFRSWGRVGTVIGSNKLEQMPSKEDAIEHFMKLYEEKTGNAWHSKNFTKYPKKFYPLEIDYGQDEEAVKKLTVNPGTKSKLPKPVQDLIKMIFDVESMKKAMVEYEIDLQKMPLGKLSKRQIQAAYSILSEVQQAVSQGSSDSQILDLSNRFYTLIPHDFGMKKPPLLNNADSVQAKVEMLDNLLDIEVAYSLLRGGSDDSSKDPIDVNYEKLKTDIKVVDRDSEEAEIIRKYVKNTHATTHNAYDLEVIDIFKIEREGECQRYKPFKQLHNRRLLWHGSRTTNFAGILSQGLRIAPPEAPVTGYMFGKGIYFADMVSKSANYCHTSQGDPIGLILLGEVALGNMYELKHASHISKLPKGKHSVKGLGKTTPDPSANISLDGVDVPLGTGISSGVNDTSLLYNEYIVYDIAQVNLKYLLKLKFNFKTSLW

IC50: 2.8 nM
SMILES: CCc1cc2ncc(CN3CCC(Nc4ccc(C(=O)NC)nc4)C3)cc2[nH]c1=O (stereo unspecified) [US20250034168, Compound 7]
